# Target: FKBP12 (Homo sapiens, UniProt P62942)
# Test: Ki test procedure: inhibition of peptidyl-prolyl isomerase (rotamase) activity, chymotrypsin-coupled assay
# Format: biochemical
# Conditions: apparent Ki
# From the text: The inhibition of the prolyl peptidyl cis-trans isomerase activity of FKBP may be measured as an indicator of this affinity.
# Inhibition of the peptidyl-prolyl isomerase (rotamase) activity of the compounds used in the pharmaceutical compositions can be evaluated by known methods described in the literature (Harding et al., Nature, 1989, 341:758-760; Holt et al. J. Am. Chem. Soc., 115:9923-9938).
# The cis-trans isomerization of an alanine-proline bond in a model substrate, N-succinyl-Ala-Ala-Pro-Phe-p-nitroanilide, is monitored spectrophotometrically in a chymotrypsin-coupled assay, which releases para-nitroanilide from the trans form of the substrate. The inhibition of this reaction caused by the addition of different concentrations of inhibitor is determined, and the data is analyzed as a change in first-order rate constant as a function of inhibitor concentration to yield the apparent Ki values.
# In a plastic cuvette are added […] of ice cold assay buffer (25 mM HEPES, pH 7.8, 100 mM NaCl), 10 mL of FKBP (2.5 mM in 10 mM Tris-Cl pH 7.5, 100 mM NaCl, 1 mM dithiothreitol), 25 mL of chymotrypsin (50 mg/ml in 1 mM HCl) and […] of test compound at various concentrations in dimethyl sulfoxide. The reaction is initiated by the addition of 5 mL of substrate (succinyl-Ala-Phe-Pro-Phe-para-nitroanilide, 5 mg/mL in 2.35 mM LiCl in trifluoroethanol).
# The absorbance at 390 nm versus time is monitored for 90 seconds using a spectrophotometer and the rate constants are determined from the absorbance versus time data files.
# FKBP12, sequence (P62942 whole entry, species assumed): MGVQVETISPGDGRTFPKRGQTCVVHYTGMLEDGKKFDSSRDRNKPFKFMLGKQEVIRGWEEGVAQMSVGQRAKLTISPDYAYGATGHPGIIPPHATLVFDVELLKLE
row,SMILES,Ki [nM]
1,O=C(C(=O)N1CCCC[C@H]1C(=O)OCCCCc1ccccc1)c1ccccc1 [Compound 13],350
2,COc1ccc(CCCCOC(=O)[C@@H]2CCCCN2C(=O)C(=O)c2cc(OC)c(OC)c(OC)c2)cc1 [Compound 25],13
3,O=C(C(=O)N1CCCC[C@H]1C(=O)OCCc1ccccc1)c1ccccc1 [Compound 14],1100
4,COC(=O)C(=O)N1CCCC[C@H]1C(=O)OCc1ccccc1 [Compound 16],80000
5,COc1cc(C(=O)C(=O)N2CCCC[C@H]2C(=O)OCCCCc2ccccc2)cc(OC)c1OC [Compound 23],19
6,O=C(C(=O)N1CCCC[C@H]1C(=O)OCc1ccccc1)c1ccco1 [Compound 20],3000
7,COC(=O)C(=O)N1CCCC[C@H]1C(=O)OCCCC1CCCCC1 [Compound 18],20000
8,O=C(C(=O)N1CCCC[C@H]1C(=O)OCc1ccccc1)c1ccccc1 [Compound 10],1500
9,COC(=O)C(=O)N1CCCC[C@H]1C(=O)OCCCC1CCCC1 [Compound 19],35000
10,O=C(C(=O)N1CCCC[C@H]1C(=O)OCCCCC1CCCCC1)c1ccccc1 [Compound 15],400
